Measured values reported in article PMC5218480 (PLoS ONE, 2017).

System: MV-4-11 cells
Test: Gene expression microarray analysis (Affymetrix PrimeView) and GSEA
Type: cell-based, human
Design: RFU PODN (11730768_x_at) / Fold change /veh PODN (11730768_x_at) / RFU LINC00158 (11744669_a_at) / Fold change /veh LINC00158 (11744669_a_at) / RFU DUSP10 (11751237_a_at) / Fold change /veh DUSP10 (11751237_a_at) / RFU ID3 (11757404_x_at) / Fold change /veh ID3 (11757404_x_at) / RFU PLEKHG5 (11737974_s_at) / Fold change /veh PLEKHG5 (11737974_s_at) / RFU LRRC4B (11730491_at) / Fold change /veh LRRC4B (11730491_at) / RFU GIMAP4 (11747438_a_at) / Fold change /veh GIMAP4 (11747438_a_at) / RFU KRT8 (11758183_x_at) / Fold change /veh KRT8 (11758183_x_at) / RFU CNN1 (11734310_a_at) / Fold change /veh CNN1 (11734310_a_at) / RFU VPS37D (11726825_at) / Fold change /veh VPS37D (11726825_at) / RFU C10orf10 (11716522_x_at) / Fold change /veh C10orf10 (11716522_x_at) / RFU KIR2DL2 /// KIR2DL4 /// KIR2DL5A /// KIR2DL5B /// KIR2DS1 /// KIR2DS2 /// KIR2DS3 /// KIR2DS4 /// KIR3DL3 /// KIR3DL3 /// KIR3DS1 (11738374_at) / Fold change /veh KIR2DL2 /// KIR2DL4 /// KIR2DL5A /// KIR2DL5B /// KIR2DS1 /// KIR2DS2 /// KIR2DS3 /// KIR2DS4 /// KIR3DL3 /// KIR3DL3 /// KIR3DS1 (11738374_at) / RFU C1QL1 (11718748_at) / Fold change /veh C1QL1 (11718748_at) / RFU TMPRSS4 (11747572_a_at) / Fold change /veh TMPRSS4 (11747572_a_at) / RFU HAMP (11756126_x_at) / Fold change /veh HAMP (11756126_x_at) / RFU RNFT2 (11725882_a_at) / Fold change /veh RNFT2 (11725882_a_at) / RFU NR4A2 (11747474_a_at) / Fold change /veh NR4A2 (11747474_a_at) / RFU ABCC12 (11746883_a_at) / Fold change /veh ABCC12 (11746883_a_at) / RFU TMEM136 (11760407_x_at) / Fold change /veh TMEM136 (11760407_x_at) / RFU CLDN22 /// WWC2 (11732394_at) / Fold change /veh CLDN22 /// WWC2 (11732394_at) / RFU HLA-DPB1 (11760878_x_at) / Fold change /veh HLA-DPB1 (11760878_x_at) / RFU SPINT1 (11716480_a_at) / Fold change /veh SPINT1 (11716480_a_at) / RFU GAP43 (11754022_s_at) / Fold change /veh GAP43 (11754022_s_at) / RFU A4GNT (11735810_at) / Fold change /veh A4GNT (11735810_at) / RFU PRB3 (11715151_x_at) / Fold change /veh PRB3 (11715151_x_at) / RFU TUBB4B (11761932_at) / Fold change /veh TUBB4B (11761932_at) / RFU CAPN14 (11732068_a_at) / Fold change /veh CAPN14 (11732068_a_at) / RFU TMCC2 (11721928_a_at) / Fold change /veh TMCC2 (11721928_a_at) / RFU IRGQ (11745062_a_at) / Fold change /veh IRGQ (11745062_a_at) / RFU FAM174B (11720279_a_at) / Fold change /veh FAM174B (11720279_a_at) / RFU TMPRSS4 (11748680_a_at) / Fold change /veh TMPRSS4 (11748680_a_at) / RFU FAM212B (11763350_a_at) / Fold change /veh FAM212B (11763350_a_at) / RFU PLEKHG5 (11743358_a_at) / Fold change /veh PLEKHG5 (11743358_a_at) / RFU ZSCAN30 (11745921_a_at) / Fold change /veh ZSCAN30 (11745921_a_at) / RFU CMKLR1 (11741424_a_at) / Fold change /veh CMKLR1 (11741424_a_at) / RFU LOC101060620 /// MAPK8IP1 (11723275_at) / Fold change /veh LOC101060620 /// MAPK8IP1 (11723275_at) / RFU SPTSSB (11747773_x_at) / Fold change /veh SPTSSB (11747773_x_at) / RFU PRSS12 (11739890_at) / Fold change /veh PRSS12 (11739890_at) / RFU BIN1 (11741810_x_at) / Fold change /veh BIN1 (11741810_x_at) / RFU WNT11 (11732464_a_at) / Fold change /veh WNT11 (11732464_a_at) / RFU C10orf10 (11716521_a_at) / Fold change /veh C10orf10 (11716521_a_at) / RFU C5orf56 (11738089_at) / Fold change /veh C5orf56 (11738089_at) / RFU CYB561 (11721691_x_at) / Fold change /veh CYB561 (11721691_x_at) / RFU ANKRD19P (11752326_a_at) / Fold change /veh ANKRD19P (11752326_a_at) / RFU OR2T12 /// OR2T33 /// OR2T8 (11738714_s_at) / Fold change /veh OR2T12 /// OR2T33 /// OR2T8 (11738714_s_at) / RFU VCAN (11748164_a_at) / Fold change /veh VCAN (11748164_a_at) / RFU JSRP1 (11732532_at) / Fold change /veh JSRP1 (11732532_at) / RFU KRTAP10-11 (11738290_x_at) / Fold change /veh KRTAP10-11 (11738290_x_at) / RFU MYO3A (11730013_a_at) / Fold change /veh MYO3A (11730013_a_at) / RFU EBF3 (11725865_a_at) / Fold change /veh EBF3 (11725865_a_at) / RFU CAMK2N1 (11719241_x_at) / Fold change /veh CAMK2N1 (11719241_x_at) / RFU C5orf56 (11738088_a_at) / Fold change /veh C5orf56 (11738088_a_at) / RFU OLFML3 (11715873_a_at) / Fold change /veh OLFML3 (11715873_a_at) / RFU LOC100653217 /// NTM (11731650_a_at) / Fold change /veh LOC100653217 /// NTM (11731650_a_at) / RFU MAPK11 (11762145_a_at) / Fold change /veh MAPK11 (11762145_a_at) / RFU FIZ1 (11724087_x_at) / Fold change /veh FIZ1 (11724087_x_at) / RFU OASL (11726364_x_at) / Fold change /veh OASL (11726364_x_at) / RFU SOX15 (11748057_x_at) / Fold change /veh SOX15 (11748057_x_at) / RFU CD79A (11719716_a_at) / Fold change /veh CD79A (11719716_a_at) / RFU HIST1H1D (11736915_at) / Fold change /veh HIST1H1D (11736915_at) / RFU CASKIN2 (11723855_a_at) / Fold change /veh CASKIN2 (11723855_a_at) / RFU LOC730098 (11760151_x_at) / Fold change /veh LOC730098 (11760151_x_at) / RFU OR4N2 (11742367_at) / Fold change /veh OR4N2 (11742367_at) / RFU PRRT2 (11749266_a_at) / Fold change /veh PRRT2 (11749266_a_at) / RFU SNX32 (11753110_a_at) / Fold change /veh SNX32 (11753110_a_at) / RFU CDHR5 (11726645_a_at) / Fold change /veh CDHR5 (11726645_a_at) / RFU RCAN1 (11760418_a_at) / Fold change /veh RCAN1 (11760418_a_at) / RFU FAM167A (11723789_a_at) / Fold change /veh FAM167A (11723789_a_at) / RFU FAM26E (11764081_at) / Fold change /veh FAM26E (11764081_at) / RFU ISYNA1 (11749810_s_at) / Fold change /veh ISYNA1 (11749810_s_at) / RFU ACY1 (11761880_at) / Fold change /veh ACY1 (11761880_at) / RFU 11764098_at / Fold change /veh 11764098_at / RFU SAMD14 (11745864_x_at) / Fold change /veh SAMD14 (11745864_x_at) / RFU NPB (11741838_a_at) / Fold change /veh NPB (11741838_a_at) / RFU TMPRSS6 (11731388_a_at) / Fold change /veh TMPRSS6 (11731388_a_at) / RFU KRTAP10-2 (11738614_at) / Fold change /veh KRTAP10-2 (11738614_at) / RFU ARHGAP8 /// PRR5-ARHGAP8 (11727945_x_at) / Fold change /veh ARHGAP8 /// PRR5-ARHGAP8 (11727945_x_at) / RFU KRTAP5-7 /// NADSYN1 (11734609_at) / Fold change /veh KRTAP5-7 /// NADSYN1 (11734609_at) / RFU RASL12 (11751679_a_at) / Fold change /veh RASL12 (11751679_a_at) / RFU CDKN2B (11736163_a_at) / Fold change /veh CDKN2B (11736163_a_at) / RFU PRF1 (11729649_at) / Fold change /veh PRF1 (11729649_at) / RFU, ZNF638 /// ZNF638-IT1 / Fold change vs veh, ZNF638 /// ZNF638-IT1 / RFU, PANK3 / Fold change vs veh, PANK3 / RFU, SH3YL1 / Fold change vs veh, SH3YL1 / RFU, ZEB2 / Fold change vs veh, ZEB2 / RFU, NRIP1 / Fold change vs veh, NRIP1 / RFU, PTTG1IP / Fold change vs veh, PTTG1IP / RFU, CAPN2 / Fold change vs veh, CAPN2 / RFU, MED14 / Fold change vs veh, MED14 / RFU, SNORA58 / Fold change vs veh, SNORA58 / RFU, C1orf63 / Fold change vs veh, C1orf63 / RFU, LRRFIP1 / Fold change vs veh, LRRFIP1 / RFU, NDUFAF7 / Fold change vs veh, NDUFAF7 / RFU, SLC12A2 / Fold change vs veh, SLC12A2 / RFU, IBTK / Fold change vs veh, IBTK / RFU, ESF1 / Fold change vs veh, ESF1 / Fold change vs veh, TMEM50B / RFU, TAOK1 / Fold change vs veh, TAOK1 / RFU, ACBD3 / Fold change vs veh, ACBD3 / RFU, TMA16 / Fold change vs veh, TMA16 / RFU, RWDD3 / Fold change vs veh, RWDD3 / RFU, BCAT1 / Fold change vs veh, BCAT1 / RFU, EDEM3 / Fold change vs veh, EDEM3 / RFU, TMEM33 / Fold change vs veh, TMEM33 / RFU, WDR75 / Fold change vs veh, WDR75 / RFU, AHCTF1 / Fold change vs veh, AHCTF1 / RFU, TFRC / Fold change vs veh, TFRC / RFU, ZDHHC17 / Fold change vs veh, ZDHHC17 / RFU, NOM1 / Fold change vs veh, NOM1 / RFU, ARL8B / Fold change vs veh, ARL8B / RFU, ZBTB11 / Fold change vs veh, ZBTB11 / RFU, TAMM41 / Fold change vs veh, TAMM41 / RFU, KIAA1704 /// LOC100996395 / Fold change vs veh, KIAA1704 /// LOC100996395 / RFU, ING1 / Fold change vs veh, ING1 / RFU, TRMT61B / Fold change vs veh, TRMT61B / RFU, FUBP3 / Fold change vs veh, FUBP3 / RFU, TP53 / Fold change vs veh, TP53 / RFU, TNKS2 / Fold change vs veh, TNKS2 / RFU, ZFP14 / Fold change vs veh, ZFP14 / RFU, ACTR2 / Fold change vs veh, ACTR2 / RFU, PPP3R1 / Fold change vs veh, PPP3R1 / RFU, PIK3R1 / Fold change vs veh, PIK3R1 / RFU, HNRNPA1 / Fold change vs veh, HNRNPA1 / RFU, RNF170 / Fold change vs veh, RNF170 / RFU, ZNF28 / Fold change vs veh, ZNF28 / RFU, RNGTT / Fold change vs veh, RNGTT / RFU, OGT / Fold change vs veh, OGT / RFU, BRD1 / Fold change vs veh, BRD1 / RFU, MARS / Fold change vs veh, MARS / RFU, ZNF655 / Fold change vs veh, ZNF655 / RFU, FAHD1 / Fold change vs veh, FAHD1 / RFU, BDP1 / Fold change vs veh, BDP1 / RFU, LRRCC1 / Fold change vs veh, LRRCC1 / RFU, ARID1A / Fold change vs veh, ARID1A / RFU, ZNF146 / Fold change vs veh, ZNF146 / RFU, ZNF330 / Fold change vs veh, ZNF330 / RFU, GPN3 / Fold change vs veh, GPN3 / RFU, C9orf123 / Fold change vs veh, C9orf123 / RFU, N4BP2L2 / Fold change vs veh, N4BP2L2 / RFU, ARFIP1 / Fold change vs veh, ARFIP1 / RFU, FAM179B / Fold change vs veh, FAM179B / RFU, BCL10 / Fold change vs veh, BCL10 / RFU, UHRF1BP1L / Fold change vs veh, UHRF1BP1L / RFU, BET1 / Fold change vs veh, BET1 / RFU, CNOT2 / Fold change vs veh, CNOT2 / RFU, ZNF268 / Fold change vs veh, ZNF268 / Fold change vs veh, ZNF507 / RFU, DGCR2 / Fold change vs veh, DGCR2 / RFU, WDSUB1 / Fold change vs veh, WDSUB1 / Fold change vs veh, HSP90B1 /// MIR3652 / RFU, ADSS / Fold change vs veh, ADSS / RFU, GK / Fold change vs veh, GK / RFU, ZNF148 / Fold change vs veh, ZNF148 / RFU, TAF9 / Fold change vs veh, TAF9 / RFU, SLC1A5 / Fold change vs veh, SLC1A5 / RFU, SLMO2 / Fold change vs veh, SLMO2 / RFU, ABCC4 / Fold change vs veh, ABCC4 / RFU, LOC101060439 /// RAP1B / Fold change vs veh, LOC101060439 /// RAP1B / RFU, RFX7 / Fold change vs veh, RFX7 / RFU, GTPBP10 / Fold change vs veh, GTPBP10 / RFU, CNEP1R1 / Fold change vs veh, CNEP1R1 / RFU, BIVM-ERCC5 /// ERCC5 / Fold change vs veh, BIVM-ERCC5 /// ERCC5 / RFU, ILF3 / Fold change vs veh, ILF3 / RFU 11762660_at / Fold change /veh 11762660_at / RFU VCAN (11757783_s_at) / Fold change /veh VCAN (11757783_s_at) / RFU DDX43 (11728927_at) / Fold change /veh DDX43 (11728927_at) / RFU KRT8 (11758188_x_at) / Fold change /veh KRT8 (11758188_x_at) / RFU NKD1 (11759106_at) / Fold change /veh NKD1 (11759106_at) / RFU SRD5A1 (11742802_a_at) / Fold change /veh SRD5A1 (11742802_a_at) / RFU TPSAB1 /// TPSB2 (11721975_s_at) / Fold change /veh TPSAB1 /// TPSB2 (11721975_s_at) / RFU GSTM3 (11746129_a_at) / Fold change /veh GSTM3 (11746129_a_at) / RFU IL23R (11737362_x_at) / Fold change /veh IL23R (11737362_x_at) / RFU TMEM51 (11727254_a_at) / Fold change /veh TMEM51 (11727254_a_at) / RFU PIWIL2 (11732686_x_at) / Fold change /veh PIWIL2 (11732686_x_at) / RFU ORM1 (11744905_x_at) / Fold change /veh ORM1 (11744905_x_at) / RFU CCDC152 (11743942_at) / Fold change /veh CCDC152 (11743942_at) / RFU ECM1 (11717891_a_at) / Fold change /veh ECM1 (11717891_a_at) / RFU IL23R (11748794_a_at) / Fold change /veh IL23R (11748794_a_at) / RFU TNFAIP8L3 (11732012_x_at) / Fold change /veh TNFAIP8L3 (11732012_x_at) / RFU MBOAT4 (11741988_at) / Fold change /veh MBOAT4 (11741988_at) / RFU 11764193_at / Fold change /veh 11764193_at / RFU TMEM53 (11763286_at) / Fold change /veh TMEM53 (11763286_at) / RFU MAGEB2 (11727129_at) / Fold change /veh MAGEB2 (11727129_at) / RFU TMEM200A (11744735_a_at) / Fold change /veh TMEM200A (11744735_a_at) / RFU CCDC152 (11751479_a_at) / Fold change /veh CCDC152 (11751479_a_at) / RFU FAM211A (11726209_a_at) / Fold change /veh FAM211A (11726209_a_at) / RFU RGS16 (11746705_a_at) / Fold change /veh RGS16 (11746705_a_at) / RFU VCAN (11755009_s_at) / Fold change /veh VCAN (11755009_s_at) / RFU RHOB (11743442_s_at) / Fold change /veh RHOB (11743442_s_at) / RFU RGS16 (11720943_a_at) / Fold change /veh RGS16 (11720943_a_at) / RFU RGS16 (11720944_at) / Fold change /veh RGS16 (11720944_at) / RFU, VPS4B / Fold change vs veh, VPS4B / RFU, CREB1 / Fold change vs veh, CREB1 / RFU, DNAJC13 / Fold change vs veh, DNAJC13 / RFU, GNAQ / Fold change vs veh, GNAQ / RFU, CDK5R1 / Fold change vs veh, CDK5R1 / RFU, ZRANB3 / Fold change vs veh, ZRANB3 / RFU, CUL4A / Fold change vs veh, CUL4A / RFU, CCNY / Fold change vs veh, CCNY / RFU, UFL1 / Fold change vs veh, UFL1 / RFU, COG3 / Fold change vs veh, COG3 / RFU, DIAPH2 / Fold change vs veh, DIAPH2 / RFU, SKA2 / Fold change vs veh, SKA2 / RFU, AFF3 / Fold change vs veh, AFF3 / RFU, LMF1 / Fold change vs veh, LMF1 / RFU, IPO11 / Fold change vs veh, IPO11 / RFU, DFFB / Fold change vs veh, DFFB / RFU, FOXP1 / Fold change vs veh, FOXP1 / RFU, CARD8 / Fold change vs veh, CARD8 / RFU, STRN3 / Fold change vs veh, STRN3 / RFU, ADK / Fold change vs veh, ADK / RFU, RASSF2 / Fold change vs veh, RASSF2 / RFU, WIPF1 / Fold change vs veh, WIPF1 / RFU, LARP1B / Fold change vs veh, LARP1B / RFU, RASA1 / Fold change vs veh, RASA1 / RFU, RB1 / Fold change vs veh, RB1 / RFU, PPFIA1 / Fold change vs veh, PPFIA1 / RFU, MAT2A / Fold change vs veh, MAT2A / RFU, CCT5 / Fold change vs veh, CCT5 / RFU, WDR92 / Fold change vs veh, WDR92 / RFU, CUX1 / Fold change vs veh, CUX1 / RFU, TTC7A / Fold change vs veh, TTC7A / RFU, TMEM135 / Fold change vs veh, TMEM135 / RFU, DEPTOR / Fold change vs veh, DEPTOR / RFU, CPM / Fold change vs veh, CPM / RFU, DNAJB6 / Fold change vs veh, DNAJB6 / RFU, CACNA2D3 / Fold change vs veh, CACNA2D3 / RFU, DTX4 / Fold change vs veh, DTX4 / RFU, TFCP2 / Fold change vs veh, TFCP2 / RFU, GMCL1 /// GMCL1P1 / Fold change vs veh, GMCL1 /// GMCL1P1 / RFU, AEBP2 / Fold change vs veh, AEBP2 / RFU, SNHG1 /// SNORD22 /// SNORD25 /// SNORD26 /// SNORD27 /// SNORD28 /// SNORD29 /// SNORD31 / Fold change vs veh, SNHG1 /// SNORD22 /// SNORD25 /// SNORD26 /// SNORD27 /// SNORD28 /// SNORD29 /// SNORD31 / Fold change (Aza/veh), C12orf56 (ProbeSet 11735607_a_at) / Fold change (ACY-1035/veh), C12orf56 (ProbeSet 11735607_a_at) / Fold change (Aza/veh), FGFR1OP (ProbeSet 11751329_s_at) / Fold change (ACY-1035/veh), FGFR1OP (ProbeSet 11751329_s_at) / Fold change (Aza/veh), VPS36 (ProbeSet 11739960_a_at) / Fold change (ACY-1035/veh), VPS36 (ProbeSet 11739960_a_at) / RFU SYPL1 (11715823_x_at) / Fold change /veh SYPL1 (11715823_x_at) / RFU IGFBP7 (11715501_s_at) / Fold change /veh IGFBP7 (11715501_s_at) / RFU REEP3 (11722064_at) / Fold change /veh REEP3 (11722064_at) / RFU IGLL1 (11728026_x_at) / Fold change /veh IGLL1 (11728026_x_at): dose or concentration left out as unconfirmed
Settings: ProbeSet 11743882_a_at; LIST D

Nc1ccc(-c2cccs2)cc1NC(=O)c1ccc2c(c1)cc(C1CC1)n2CCN1CCOCC1 [ACY-1035]
Fold change vs veh, STRN3: 0.92
